Patent US6891063B1, “Salts of asiatic and madecassic acid suitable for the preparation of pharmaceutical and cosmetic compositions” (Euphar Group S.r.l., priority 1999, dated 2005)

How the values were obtained:
[1] = prior art statement; cited from earlier work
human endothelial cells [2] = assay: Production of PG1 (6-Keto PGF1, RIA) from human endothelial cells in culture; type: cell-based; conditions: Asialene 1.5 μg/ml, culture medium + EtOH 0.75 g/dl
Description: (§1) 1. Test of Production of PG1 and of Fibronectin from Human Endothelial Cells in Culture.
The activity of the salt prepared in the Example 1, indicated as Asialene, on cicatrization was evaluated by an in vitro test which allows to deduce the effects of the substance on the vascular permeability and on the cicatrization.
The test consists in the evaluation of the production of PG1 from cells extracted by collagenase from vein of human omphalic funicle suspended and seeded in a suitable culture medium (E199+FCS 20%+L-Glutamine 2 mM+Penicillin 200 U/ml+Streptomycin 200 μg/ml) cultured in 75 or 25 ml flasks for 48-72 hours.
After removing the cells with 0.05% Trypsin and 0.02% EDTA the subcultures were prepared using secondary cultures seeded on a 35 mm Petri dish, kept in an incubator with 5% CO2 and 100% humidity. For the evaluation of the cell morphology and confluence and the PG1 production, about 300,000 cells/ml of culture medium were used carrying out the count in a Burker chamber, following three schemes: • 1. Cells+culture medium+EtOH(0.75 g/dl) • 2. Cells+culture medium+EtOH(0.75 g/dl)+FTT([…]) • 3. […]
The cultures were evaluated with an inverse light microscope, at 24 and 48 hours monitoring cell attachment and growth while on supernatant aliquots the stable metabolite of the prostacyclin (6-Keto PGF1) was assayed with RIA method. […]

human endothelial cells [3] = assay: Fibronectin evaluation (immunofluorescence, intercellular strands) in human endothelial cells in culture; type: cell-based; conditions: 1.5 μg/ml; after 48 hours; culture medium + EtOH 0.75 g/dl
Description: as §1
For the Fibronectin evaluation, the primary cultures were resuspended in 0.05% Trypsin/0.02% EDTA. The cells, washed twice in Hanks solution, were counted in order to assure at least 300,000 cells/ml and seeded. After 48 hours the supernatant was removed and the slides were prepared, which after being washed 2 times with PBS, and dried, were fixed in acetic acid/ethanol for 30 minutes; a washing with PBS was then carried out and added the polyclonal rabbit anti-human fibronectin antibody (1:40, Dako). After incubation at room temperature for 30 minutes, it was washed with PBS and the fluoresceinated anti-rabbit immunoglobulin antibody was added (1:100, Dako). The slides were left in incubation for 30 minutes and then mounted on an object holder and read with a fluorescence electronic microscope.
In the following table, the numbers relating to fibronectin intercellular strands (1:100 scale) are reported.

platelet = assay: Evaluation of the platelet aggregation inhibiting effect in PRP; type: cell-based, human; conditions: 70 μg/ml
Description: 2. Evaluation of the Platelet Aggregation Inhibiting Effect
Blood taken from healthy volunteers not submitted to pharmacological therapy during one week, was gathered in polyethylene test-tubes containing 3.8% sodium citrate in 1:9 ratio, and centrifuged at 1000 g for 10 minutes in order to obtain plasma having a high platelet content (PRP) and at 3000 g for 15 minutes in order to obtain plasma having a low platelet content (PPP). Two […] PRP samples (300,000+/−10000 platelet/ml final concentration) were submitted to incubation at 37° C. for 60 seconds in presence of 100 μl FTT (700 μg/ml) and 10 μl of Asialene ([…]) respectively. Each sample was divided in three portions which were treated with 10 μl of a platelet aggregation agent, ADP ([…] final concentration), collagen (4 μg/ml final concentration) and arachidonic acid (0.2 mg/ml final concentration) respectively, and the aggregation was recorded for 4 minutes.

[4] = test system: Croton oil induced oedema in the mouse ear; assay: Test of topical antiinflammatory activity: Croton oil dermatitis in the mouse ear; type: in vivo; conditions: for ID50 (dose level able to reduce by 50% the oedematous response): linear interpolation from the dose-response relationship, indomethacin value confirmed from past data; for Inhibition (%) of oedema / Oedema (mg) m ± E.S.: 6 hours
Description: 3. Test of Topical Antiinflammatory Activity
The antiinflammatory activity of Asialene and L-Asialene was evaluated in comparison to that of the NSAID indomethacin. As experimental model, the Croton oil dermatitis induced in the mouse ear was used (Tubaro et al., Agents & Actions 17: 347-349).
The experimental inflammation was induced on the right ear (surface: about 1 cm^2) of anaesthetised mice (145 mg/kg ketamine hydrochloride i.p.) by application of 80 μg of Croton oil (Sigma-Italy) in 15 μl acetone on the right ear of mice, the left remaining untreated. The tested substances were dissolved in the Croton oil solution. Six hours after the dermatitis induction, the animals were sacrificed and a punch (6 mm diameter) was excised from both the treated and the untreated ears and weighed. The Croton oil induced oedema was quantified by measuring the difference in weight between the treated and untreated (opposite) ear samples. The anti-oedema activity was expressed as percent inhibition of the oedematous response in animals treated with the test substances in comparison to the animals treated with the irritant alone. Male albino Swiss mice CD-1 (Harlan-Italy), weighing 20-32 g, were used. For each substance and dose level, 10 animals were used.
The effects on the vascular response were evaluated as percent oedema inhibition. […] For each substance, the dose level able to reduce by 50% the oedematous response (ID50) was calculated by linear interpolation from the dose-response relationship.
Asialene and L-Asialene were administered at equimolar doses.

C[C@H]1[C@H](C)CC[C@]2(C(=O)O)CC[C@]3(C)C(=CC[C@@H]4[C@@]5(C)C[C@@H](O)[C@H](O)[C@@](C)(CO)[C@@H]5[C@H](O)C[C@]43C)[C@H]12 [madecassic acid]
solubility in water [1]: almost total insolubility in water

C[C@@H]1CC[C@]2(C(=O)O)CC[C@]3(C)C(=CCC4[C@@]5(C)C[C@@H](O)[C@H](O)[C@@](C)(CO)C5CC[C@]43C)C2[C@H]1C (stereo partly drawn) [asiatic, 2α, 3β, 23-trihydroxyurs-12-en-28-oic acid]
solubility in water [1]: almost total insolubility in water

Salt of the Asiatic Acid with Ethylenediamine [Asialene]
6-Keto PGF1 (human endothelial cells [2]; 24 h): 980 µg/mL
6-Keto PGF1 (human endothelial cells [2]; 48 h): 889 µg/mL
fibronectin intercellular strands (1:100 scale) (human endothelial cells [3]): 85
Aggregation from arachidonic acid (0.2 mg/ml) (platelet; controls 81): 23
Aggregation from ADP (4 mM) (platelet; controls 88): 32
Aggregation from collagen (4 μg/ml) (platelet; controls 100): 50
ID50 (dose level able to reduce by 50% the oedematous response) [4]: 62 μg/cm^2
Inhibition (%) of oedema ([4]; topical dose 30 μg/cm^2): 27.5%
Oedema (mg) m ± E.S. ([4]; topical dose 30 μg/cm^2, control 6.9 ± 0.2): 5.0 ± 0.4 mg
Inhibition (%) of oedema ([4]; topical dose 100 μg/cm^2): 68.1%
Oedema (mg) m ± E.S. ([4]; topical dose 100 μg/cm^2, control 6.9 ± 0.2): 2.2 ± 0.5 mg
Inhibition (%) of oedema ([4]; topical dose 300 μg/cm^2): 91.3%
Oedema (mg) m ± E.S. ([4]; topical dose 300 μg/cm^2, control 6.9 ± 0.2): 0.6 ± 0.1 mg
Inhibition (%) of oedema ([4]; topical dose 1000 μg/cm^2): 94.2%
Oedema (mg) m ± E.S. ([4]; topical dose 1000 μg/cm^2, control 6.9 ± 0.2): 0.4 ± 0.1 mg
potency higher than that of the reference drug (comparison between the ID50 values) ([4]; versus indomethacin): 50%

COc1ccc2c(c1)c(CC(=O)O)c(C)n2C(=O)c1ccc(Cl)cc1 [Indomethacin, indomethacin, reference compound]
ID50 (dose level able to reduce by 50% the oedematous response) [4]: 90 μg/cm^2
Inhibition (%) of oedema ([4]; topical dose 90 μg/cm^2): 49.3%
Oedema (mg) m ± E.S. ([4]; topical dose 90 μg/cm^2): 3.5 ± 0.4 mg
